According to patent US9192618B2, “Method of treating constipation-predominant irritable bowel syndrome” (Cedars-Sinai Medical Center, priority 2002, dated 2015):

What was measured:
[1] = test system: intestinal transit in dogs; test: Intestinal transit in dogs with duodenal and mid-gut fistulas after bolus delivery of gas to the distal gut (99mTc-DTPA recovery); type: in vivo; settings: 180 ml bolus to the distal gut at time 0, n=three dogs
Protocol: In dogs equipped with duodenal (10 cm from pylorus) and mid-gut (160 cm from pylorus) fistulas, intestinal transit was compared across an isolated 150 cm test segment (between fistulas) while the proximal segment of the gut was perfused with pH 7.0 phosphate buffer at 2 mL/min for 90 minutes. Room air (n=three dogs) or methane (n=three dogs) was delivered into the distal gut as a 180-ml bolus at time 0. Sixty minutes after the start of the perfusion, 20 μCi of ^99mTc-DTPA (diethylenetriaminepentaacetic acid) was delivered as a bolus into the proximal segment of the gut. Intestinal transit was then measured by counting the radioactivity of 1 ml samples collected every 5 minutes from the diverted output of the mid-gut fistula. Intestinal transit was calculated by determining the area under the curve (AUC) of the cumulative percent recovery of the radioactive marker in the control (air administration) and experimental (methane administration) dogs. The square root values of the AUC (Sqrt AUC), where 0=no recovery by 30 minutes and 47.4=theoretical, instantaneous complete recovery by time 0, were compared for the control and experimental animals, using 2-way repeated measures ANOVA.

[2] = test system: irritable bowel syndrome (IBS) subjects; test: Double-blind, randomized, placebo-controlled study of neomycin in IBS subjects (symptom questionnaire and lactulose breath test); type: in vivo, human; settings: for patient-reported bowel normalization / reduction in composite score (CS): mean ± S.E.
Source text: In a double-blind, randomized, placebo-controlled study, we confirm that an abnormal lactulose breath test is more prevalent in IBS than normal controls, and that antibiotic treatment in IBS leads to an improvement in symptoms and that this is based on antibiotic-induced normalization of breath test. […] This is another important step in linking SIBO and IBS.
Study subjects were recruited by advertising in local newspapers, radio and IBS support groups throughout the greater Los Angeles area. To avoid referral bias, subjects were not recruited through the GI motility clinic or any gastroenterology practice based at Cedars-Sinai Medical Center. Subjects were included if they met Rome I criteria for IBS (7). […] Subjects were excluded if they had antibiotics within the previous three months, a previous lactulose breath test (LBT), or a history of diabetes, thyroid disease, intestinal surgery (except cholecystectomy or appendectomy), connective tissue disease, narcotic use or known gastrointestinal disease. Subjects with renal insufficiency, hearing impairment, probiotic use or allergy to aminoglycosides were also excluded. Approval from the institutional review board and written informed consent from the participating subjects were obtained.
Subjects presented to the GI Motility Laboratory having fasted from 7:00 p.m. the night before. They were instructed not to ingest legumes or a heavy meal for dinner the night prior to evaluation. Good oral hygiene was recommended and smoking was not permitted on the day of testing.
Prior to the LBT, subjects completed a symptom questionnaire asking them to grade nine IBS symptoms (abdominal pain, diarrhea, constipation, bloating, sense of incomplete evacuation, straining, urgency, mucus and gas) on a severity score of 0-5 as has been previously used and recommended (15-17). All questions were answered based on their recall of the preceding 7 days (17).
Subjects then underwent a LBT by ingesting 10 g of lactulose (Inalco Spa, Milano, Italy, packaged by Xactdose Inc., South Beloit, Ill.) followed by 1-2 ounces of water after an initial baseline breath sample. Breath samples were then collected at 15 minute intervals for 180 minutes. End expiratory breath samples were taken to ensure alveolar gas sampling. Samples were analyzed for hydrogen, methane and carbon dioxide using a Model SC, Quintron gas chromatograph (Quintron Instrument Company, Milwaukee, Wis.). Carbon dioxide measurements were used to correct for the quality of alveolar sampling. Measurements were plotted graphically as previously described (12). Patients and investigators were blinded to the result of the breath test.
All subjects were randomized by personnel not associated with the study to receive, in a double blind fashion, either neomycin (500 mg) (Teva pharmaceuticals, USA, Sellersville, Pa.) or matching placebo twice daily for 10 days. Seven days after completion of the antibiotic or placebo, subjects returned for a repeat questionnaire and LBT. A seven day follow up was chosen since in our experience the abnormal breath test in IBS can recur as early as two weeks after antibiotic normalization. As part of the follow up questionnaire, subjects were asked to subjectively rate the amount of improvement they experienced as a percent normalization of bowel function and repeated their perceived severity of the 9 bowel symptoms described earlier. Compliance was assessed by pill count. To comply with institutional review board requirements, follow-up LBT results could not be blinded so patients could seek appropriate medical therapy for their test result.
At the completion of enrollment, all initial and follow-up breath tests were coded and randomized by personnel not involved in the interpretation of the test. A blinded reviewer (M.P.) interpreted the results and was asked to categorize the breath tests based on whether the test met the criteria for normal LBT. […]

IBS = settings: literature report (ref. 21); cited from earlier work

## C [methane]
[1]
  effect on rate of intestinal transit versus room air control: substantially slowed the rate of intestinal transit
[1]; listed as Methane
  effect on rate of intestinal transit versus room air control: slowed intestinal transit

## neomycin
[2]; 91 subjects who completed the question
  patient-reported bowel normalization: 40.1±5.3%
[2]; abnormal baseline LBT, complete data, 8 out of 41
  subjects achieving normalization of LBT: 20%
[2]; abnormal baseline LBT, neomycin but not successful normalization of LBT
  self-reported percent bowel normalization: 36.7±6.1%
[2]; abnormal baseline LBT, neomycin-treated group that did not achieve LBT normalization
  percent reduction in CS: 34.4±6.2%
[2]; abnormal baseline LBT, neomycin-treated group with LBT normalization
  percent reduction in CS: 61.7±9.4%
[2]; abnormal baseline LBT, normal follow up LBT after neomycin
  self-reported percent bowel normalization: 75.0±6.4%
[2]; all subjects receiving neomycin, 24 out of 55
  subjects with true clinical response (≧50% improvement in CS): 43%
[2]; all subjects, CI=1.05-6.3
  odds ratio of true clinical response (≧50% improvement in CS) versus placebo: 4.3
[2]; intention-to-treat, all subjects (n=111), neomycin 500 mg twice daily for 10 days
  reduction in composite score (CS): 35.0±0.7%
[2]; subgroup with abnormal baseline LBT (n=93)
  reduction in composite score (CS): 35.4±0.8%
[2]; subgroup with abnormal breath tests, 21 out of 46
  subjects with true clinical response (≧50% improvement in CS): 46%
[2]; subgroup with abnormal breath tests, CI=1.62-14.7
  odds ratio of true clinical response (≧50% improvement in CS) versus placebo: 4.8
[2]; subgroup with abnormal initial breath tests
  patient-reported bowel normalization: 44.8±5.6%
[2]; subjects with a normal baseline breath test
  reduction in composite score (CS) versus placebo: No difference
[2]; subjects with abnormal initial breath test
  subjects with true clinical response (≧50% reported bowel normalization): 55%
[2]; subjects with abnormal initial breath test, CI=2.5-39.7
  odds ratio of true clinical response (≧50% reported bowel normalization) versus placebo: 9.6
[2]; subjects with normal follow up LBT after neomycin, 7 out of 8
  subjects reporting more than 50% normalization of bowel function: 88%
[2]; whole group who answered (n=91), CI=1.7-14.4
  odds ratio of true clinical response (≧50% reported bowel normalization) versus placebo: 4.8
[2]; whole group who answered the question (n=91)
  subjects with true clinical response (≧50% reported bowel normalization): 50%

## Cc1ncc([N+](=O)[O-])n1CCO [flagyl]
IBS
  reduction of clinical symptoms in IBS versus placebo: superior to placebo
